The species entered for test [1] is Mus musculus. Nature of the test: Anticonvulsant activity in mouse by MES test. It is filed as functional.
Test [2] deals with Helicobacter pylori. The test can be described thus: Antimicrobial activity against Helicobacter pylori at 1 ug/disc. The following applies: read-out: IZ. The class given is functional.
Test [3] relates to Human immunodeficiency virus 1. Nature of the test: Antiviral activity against HIV1 3B by MTT assay. It is filed as functional, organism-based. The following applies: Human immunodeficiency virus 1, 3B. (In general: Tetrazolium assays rely on reduction of a dye to a coloured formazan, in cell work by metabolically active cells.)
The subject of test [4] is Human immunodeficiency virus 2. The test can be described thus: Antiviral activity against HIV2 ROD by MTT assay. The class given is functional, organism-based. The following applies: Human immunodeficiency virus 2, ISOLATE ROD.
The test system of test [5] is Helicobacter pylori. The test can be described thus: Antimicrobial activity against Helicobacter pylori by disc diffusion method. It is filed as functional. On the technique in general: Agar diffusion results depend on both activity and mobility in agar.
In the next test the target is Carbonic anhydrase (Bos taurus, UniProt P00921+Q95323+P18915+Q3SZX4). The test can be described thus: Inhibition of bovine carbonic anhydrase 5. It is filed as protein assay.
The target of another test is Carbonic anhydrase 1 (Homo sapiens, UniProt P00915). Nature of the test: Inhibition of human carbonic anhydrase 1.
In another test the target is Carbonic anhydrase 9 (Homo sapiens, UniProt Q16790). The test can be described thus: Inhibition of human carbonic anhydrase 9.
In the next test the target is Carbonic anhydrase 2 (Homo sapiens, UniProt P00918). Nature of the test: Inhibition of human carbonic anhydrase 2.
Test [6] concerns Human immunodeficiency virus 2. Nature of the test: Antiviral activity against HIV2 infected in human MT4 cells. The class given is functional, organism-based. The following applies: Human immunodeficiency virus 2, MT4.
Test [7] deals with Human immunodeficiency virus 1. Nature of the test: Antiviral activity against HIV1 infected in human MT4 cells. The following applies: Human immunodeficiency virus 1, MT4. The class given is functional, organism-based.
For test [8], the species on record is Mus musculus. The test can be described thus: Anticonvulsant activity in mouse assessed as protection against shock-induced seizures by MES test. It is filed as functional.
The target in test [9] is T1, Polyunsaturated fatty acid 5-lipoxygenase (Homo sapiens, UniProt P09917).
T1 sequence (P09917 whole entry): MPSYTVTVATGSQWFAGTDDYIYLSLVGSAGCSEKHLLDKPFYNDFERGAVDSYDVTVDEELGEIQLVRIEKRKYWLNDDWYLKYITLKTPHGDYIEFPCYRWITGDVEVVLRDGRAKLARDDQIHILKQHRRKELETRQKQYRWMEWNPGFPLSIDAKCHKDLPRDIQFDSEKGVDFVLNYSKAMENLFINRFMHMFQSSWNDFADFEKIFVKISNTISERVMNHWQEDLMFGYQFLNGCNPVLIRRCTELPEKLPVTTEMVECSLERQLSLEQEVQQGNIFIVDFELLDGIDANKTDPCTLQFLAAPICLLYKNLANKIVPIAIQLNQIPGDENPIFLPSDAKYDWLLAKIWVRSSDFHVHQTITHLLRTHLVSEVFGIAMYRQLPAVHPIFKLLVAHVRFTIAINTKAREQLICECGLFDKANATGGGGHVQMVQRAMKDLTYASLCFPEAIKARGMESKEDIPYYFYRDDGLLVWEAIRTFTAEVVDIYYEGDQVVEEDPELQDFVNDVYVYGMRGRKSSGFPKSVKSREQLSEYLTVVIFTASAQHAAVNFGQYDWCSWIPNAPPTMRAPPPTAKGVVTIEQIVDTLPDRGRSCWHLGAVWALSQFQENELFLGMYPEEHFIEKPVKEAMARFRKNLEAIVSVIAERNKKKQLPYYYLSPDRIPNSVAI
The test can be described thus: Inhibition of 5-LO (unknown origin).

The target in another test is Cyclooxygenase (Homo sapiens, UniProt P35354+P23219). Nature of the test: Inhibition of CO (unknown origin).
In test [10] the test system is Helicobacter pylori. Nature of the test: Potency index, ratio of IZ for compound to IZ for metronidazole against Helicobacter pylori by disc diffusion method. It is filed as functional.

Here are results for ten compounds from ChEMBL document CHEMBL3407389, “1,3,4-Thiadiazoles: a potent multi targeted pharmacological scaffold” (Eur J Med Chem, 2015).

Values after ≈ are worked out from the molar mass of the structure shown.

One may read the ED50 as the dose that gives a 50% effect, or the effect in half of the subjects. Read a low ED50 as an effect at a small dose. In general, EC50 refers to the midpoint of the concentration-response curve. Lower therefore signals greater potency. One may read the Ki as the equilibrium dissociation constant of an inhibitor or competing ligand from its target. Low values mean tighter binding, high ones weaker binding. By IC50 is commonly meant the concentration that inhibits the measured activity by half. A low value points to higher potency.

Chain of Carbonic anhydrase 1 (P00915 whole entry): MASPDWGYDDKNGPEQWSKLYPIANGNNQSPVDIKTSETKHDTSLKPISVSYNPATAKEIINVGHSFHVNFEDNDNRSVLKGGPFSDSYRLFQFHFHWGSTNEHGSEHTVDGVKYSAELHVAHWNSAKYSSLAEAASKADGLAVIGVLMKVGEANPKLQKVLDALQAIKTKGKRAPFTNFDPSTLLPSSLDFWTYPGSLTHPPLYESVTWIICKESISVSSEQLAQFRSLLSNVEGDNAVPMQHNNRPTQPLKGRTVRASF

With `CNc1nnc(-c2ccccc2-c2ccccc2)s1`, the 50% effect level in the test listed under Mus musculus [1] (ED50) was put at a dose of 18 mg/kg.

`Cn1c([N+](=O)[O-])cnc1-c1nnc(S)s1`: the zone of inhibition at 1 µg/disc in the test on Helicobacter pylori [2] is 7.7 mm.

For the compound `O=C(COc1ccc2ccccc2c1)NCc1nnc(Nc2ccccc2)s1`, the EC50 in test [3] and in test [4] was 0.961 µg/mL (≈ 2.46 µM) throughout.

For the compound `Cc1ncc([N+](=O)[O-])n1CCO` [METRONIDAZOLE], the zone of inhibition at 1 µg/disc with Helicobacter pylori [2] stood at 16.3 mm. Moreover, in the test with Helicobacter pylori [5], the “inhibition zone (IZ)” value is recorded as 6 mm.

Take `NS(=O)(=O)c1nnc(NS(=O)(=O)c2ccc(-[n+]3ccccc3)cc2)s1`: the Ki at Carbonic anhydrase was 2 nM; on Carbonic anhydrase 1 it was 3 nM; on Carbonic anhydrase 9 it was 6 nM; on Carbonic anhydrase 2, 0.2 nM.

Regarding `Cc1ccc(S(=O)(=O)NCc2nnc(Nc3ccc(Cl)cc3)s2)cc1`, the EC50 is 9.9 µg/mL (≈ 25.1 µM) in [6] and 23.9 µg/mL (≈ 60.5 µM) in test [7].

For the compound `Clc1ccc(Nc2nnc(-c3ccncc3)s2)cc1`, the Activity in the test listed under Mus musculus [8] was 100%.

Turning to `CC(C)(C)c1cc(-c2n[nH]c(=S)s2)cc(C(C)(C)C)c1O.C[N+](C)(C)CCO`, the IC50 in test [9] was determined as 2800 nM; on Cyclooxygenase it was 800 nM.

With `CC1CN(c2nnc(-c3ncc([N+](=O)[O-])n3C)s2)CC(C)N1` (centres undefined), the “inhibition zone (IZ)” value with Helicobacter pylori [5] was determined as 30.9 mm. Further, in the test on Helicobacter pylori [10], the “fold change (FC)” value amounted to 5.

Turning to `c1ccc(C2=Nn3cnnc3SC2)cc1`, the EC50 in [6] and in test [7] was 1.97 µg/mL (≈ 9.11 µM) each time.
